Experimental data: patent publication US12662489B2 (Sitryx Therapeutics Limited, priority 2023, dated 2026)

Experiments:
[1] = target: T1, MTHFD2 recombinant human enzyme (Homo sapiens, UniProt P13995); experiment: MTHFD2 inhibition assay (NAD(P)H-Glo luminescence); conditions: for MTHFD1/MTHFD2 IC50 ratio: selectivity of MTHFD2 inhibition over MTHFD1, band
T1 sequence (P13995 36-350): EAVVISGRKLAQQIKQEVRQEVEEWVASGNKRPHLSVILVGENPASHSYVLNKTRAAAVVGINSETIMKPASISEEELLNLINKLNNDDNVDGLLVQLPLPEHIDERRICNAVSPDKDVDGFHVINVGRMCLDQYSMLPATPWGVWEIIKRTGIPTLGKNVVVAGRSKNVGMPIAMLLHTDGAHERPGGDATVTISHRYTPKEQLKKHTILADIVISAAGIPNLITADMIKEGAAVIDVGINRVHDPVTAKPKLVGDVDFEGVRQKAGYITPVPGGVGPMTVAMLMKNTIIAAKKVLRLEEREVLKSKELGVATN

[2] = target: T2, MTHFD1 recombinant human enzyme (Homo sapiens, UniProt P11586); experiment: MTHFD1 inhibition assay (NAD(P)H-Glo luminescence); conditions: MTHFD1 IC50, recombinant human enzyme 200 nM, NADP, band
T2 sequence (P11586 2-291 limits assumed): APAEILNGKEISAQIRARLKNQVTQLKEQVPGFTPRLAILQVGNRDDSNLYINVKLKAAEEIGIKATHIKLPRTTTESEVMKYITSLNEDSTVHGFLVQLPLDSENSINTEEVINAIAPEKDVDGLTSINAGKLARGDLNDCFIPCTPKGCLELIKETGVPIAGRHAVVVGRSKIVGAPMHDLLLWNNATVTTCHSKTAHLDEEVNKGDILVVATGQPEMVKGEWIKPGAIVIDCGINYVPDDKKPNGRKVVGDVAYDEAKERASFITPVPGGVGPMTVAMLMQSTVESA

IC50 [1]	MTHFD1/MTHFD2 IC50 ratio [1]	IC50 [2]	Structure (SMILES)
100 to 1000 nM	H (>9.0 to 30)	1000 to 5000 nM	COC[C@H]1CN(c2ccc3c4c(c(=O)oc3c2C)CN(C(=O)c2cc(OC3CCCC3)c(C(=O)NS(=O)(=O)C3(C)CC3)c(C(F)(F)F)c2)CC4)CCN1C [Example 101, (R)-2-(cyclopentyloxy)-4-(8-(3-(methoxymethyl)-4-methylpiperazin-1-yl)-7-methyl-5-oxo-1,3,4,5-tetrahydro-2H-chromeno[3,4-c]pyridine-3-carbonyl)-N-((1-methylcyclopropyl)sulfonyl)-6-(trifluoromethyl)benzamide]
100 to 1000 nM	H (>9.0 to 30)	> 5000 nM	COC[C@H]1CN(c2cc(C)c3c4c(c(=O)oc3c2)CN(C(=O)c2ccc(C(=O)NS(=O)(=O)N3CCCC3)c(OC3CCCC3)c2F)CC4)CCN1C [Example 187, (R)-2-(cyclopentyloxy)-3-fluoro-4-(8-(3-(methoxymethyl)-4-methylpiperazin-1-yl)-10-methyl-5-oxo-1,3,4,5-tetrahydro-2H-chromeno[3,4-c]pyridine-3-carbonyl)-N-(pyrrolidin-1-ylsulfonyl)benzamide]
1 to 10 nM	J (>30)	100 to 1000 nM	COC[C@H]1CN(c2cc(Cl)c3c4c(c(=O)oc3c2C)CN(C(=O)c2cc(N(C)C)c(C(=O)NS(=O)(=O)N(C)C3CC3)cc2F)CC4)CCN1C [Example 323, (R)-4-(10-chloro-8-(3-(methoxymethyl)-4-methylpiperazin-1-yl)-7-methyl-5-oxo-1,3,4,5-tetrahydro-2H-chromeno[3,4-c]pyridine-3-carbonyl)-N-(N-cyclopropyl-N-methylsulfamoyl)-2-(dimethylamino)-5-fluorobenzamide]
10 to 100 nM	F (<3)	10 to 100 nM	COC[C@H]1CN(c2cc(C)c3c4c(c(=O)oc3c2C)CN(C(=O)c2ccc(C(=O)NS(=O)(=O)N(C)C)c(OC3C5CC6CC(C5)CC3C6)c2)CC4)CCN1C (stereo partly drawn) [Example 100, 2-((adamantan-2-yl)oxy)-N-(N,N-dimethylsulfamoyl)-4-(8-((R)-3-(methoxymethyl)-4-methylpiperazin-1-yl)-7,10-dimethyl-5-oxo-1,3,4,5-tetrahydro-2H-chromeno[3,4-c]pyridine-3-carbonyl)benzamide]
100 to 1000 nM	G (^ 3 to 9.0)	100 to 1000 nM	COC[C@H]1CN(c2ccc3c4c(c(=O)oc3c2C)CN(C(=O)c2ccc(C(=O)NS(=O)(=O)N3CCCC3)c(N(C)C)c2F)CC4)CCN1C [Example 139, (R)-2-(dimethylamino)-3-fluoro-4-(8-(3-(methoxymethyl)-4-methylpiperazin-1-yl)-7-methyl-5-oxo-1,3,4,5-tetrahydro-2H-chromeno[3,4-c]pyridine-3-carbonyl)-N-(pyrrolidin-1-ylsulfonyl)benzamide]
10 to 100 nM	H (>9.0 to 30)	1000 to 5000 nM	COC[C@H]1CN(c2cc(Cl)c3c4c(c(=O)oc3c2C)CN(C(=O)c2cc(N(C)C)c(C(=O)NS(=O)(=O)N3CCCCC35COC5)cc2F)CC4)CCN1C [Example 271, (R)-N-((2-oxa-5-azaspiro[3.5]nonan-5-yl)sulfonyl)-4-(10-chloro-8-(3-(methoxymethyl)-4-methylpiperazin-1-yl)-7-methyl-5-oxo-1,3,4,5-tetrahydro-2H-chromeno[3,4-c]pyridine-3-carbonyl)-2-(dimethylamino)-5-fluorobenzamide]
10 to 100 nM	J (>30)	1000 to 5000 nM	COC[C@H]1CN(c2cc(C)c3c4c(c(=O)oc3c2C)CN(C(=O)c2ccc(C(=O)NS(=O)(=O)N3CCC(F)CC3)cc2F)CC4)CCN1C [Example 204, (R)-3-fluoro-N-((4-fluoropiperidin-1-yl)sulfonyl)-4-(8-(3-(methoxymethyl)-4-methylpiperazin-1-yl)-7,10-dimethyl-5-oxo-1,3,4,5-tetrahydro-2H-chromeno[3,4-c]pyridine-3-carbonyl)benzamide]
10 to 100 nM	J (>30)	1000 to 5000 nM	COC[C@H]1CN(c2cc(C)c3c4c(c(=O)oc3c2C)CN(C(=O)c2cc(F)c(C(=O)NS(=O)(=O)N3CCCC3)cc2N(C)C)CC4)CCN1C [Example 243]
10 to 100 nM	F (<3)	1 to 10 nM	COC[C@H]1CN(c2cc(C)c3c4c(c(=O)oc3c2C)CN(C(=O)c2ccc(C(=O)NS(=O)(=O)C3(C)CC3)c(N3CCC[C@@H]3C)c2)CC4)CCN1C [Example 125, 4-(8-((R)-3-(methoxymethyl)-4-methylpiperazin-1-yl)-7,10-dimethyl-5-oxo-1,3,4,5-tetrahydro-2H-chromeno[3,4-c]pyridine-3-carbonyl)-N-((1-methylcyclopropyl)sulfonyl)-2-((S)-2-methylpyrrolidin-1-yl)benzamide]
10 to 100 nM	H (>9.0 to 30)	100 to 1000 nM	CCOc1cc(C(=O)N2CCc3c(c(=O)oc4c(C)c(N5CCN(C)[C@@H](COC)C5)cc(C)c34)C2)c(F)cc1C(=O)NS(=O)(=O)N1CC2(CCC2)C1 [Example 220, (R)-N-((2-azaspiro[3.3]heptan-2-yl)sulfonyl)-2-ethoxy-5-fluoro-4-(8-(3-(methoxymethyl)-4-methylpiperazin-1-yl)-7,10-dimethyl-5-oxo-1,3,4,5-tetrahydro-2H-chromeno[3,4-c]pyridine-3-carbonyl)benzamide]

Structure (SMILES)	IC50 [1]	MTHFD1/MTHFD2 IC50 ratio [1]	IC50 [2]
COC[C@H]1CN(c2ccc3c4c(c(=O)oc3c2Cl)CN(C(=O)c2ccc(C(=O)NS(=O)(=O)N3CCCC3)c(OC3CCC3)c2F)CC4)CCN1C [Example 53, (R)-4-(7-chloro-8-(3-(methoxymethyl)-4-methylpiperazin-1-yl)-5-oxo-1,3,4,5-tetrahydro-2H-chromeno[3,4-c]pyridine-3-carbonyl)-2-cyclobutoxy-3-fluoro-N-(pyrrolidin-1-ylsulfonyl)benzamide]	10 to 100 nM	F (<3)	1 to 10 nM
COC[C@H]1CN(c2ccc3c4c(c(=O)oc3c2C)CN(C(=O)c2ccc(C(=O)NS(=O)(=O)N3CCCC3)c(OC3CCC3)c2F)CC4)CCN1C(C)C [Example 170, (R)-2-cyclobutoxy-3-fluoro-4-(8-(4-isopropyl-3-(methoxymethyl)piperazin-1-yl)-7-methyl-5-oxo-1,3,4,5-tetrahydro-2H-chromeno[3,4-c]pyridine-3-carbonyl)-N-(pyrrolidin-1-ylsulfonyl)benzamide]	10 to 100 nM	G (^ 3 to 9.0)	100 to 1000 nM
COC[C@H]1CN(c2cc(C)c3c4c(c(=O)oc3c2C)CN(C(=O)c2cc(OC3CCC3)cc(C(=O)NS(=O)(=O)N3CCCC3)c2)CC4)CCN1C [Example 164, (R)-3-cyclobutoxy-5-(8-(3-(methoxymethyl)-4-methylpiperazin-1-yl)-7,10-dimethyl-5-oxo-1,3,4,5-tetrahydro-2H-chromeno[3,4-c]pyridine-3-carbonyl)-N-(pyrrolidin-1-ylsulfonyl)benzamide]	100 to 1000 nM	H (>9.0 to 30)	> 5000 nM
